Measured values taken from patent publication US10881634B2, “Method for treatment or prevention of a disease associated with a decrease in bone mass and method of improving bone architecture and bio mechanical strength of bone” (HUGHES BIOTECHNOLOGY CO., LTD, priority 2017, dated 2021).

Key:
[1] = tested on: ovariectomized rats; experiment: Bone index test (in vivo micro-CT scan of caput femoris); design: species or system Wistar rats; settings: for BMD level compared with OVX group: week 12
Procedure: (§1) For ovariectomy rats, bilateral ovariectomy surgery was conducted at 12-week-old under anesthesia with Zoletil 50 (Tiletamine 20-40 mg/kg+Zolazepam 5-10 mg/kg) and Rompun, following the FDA Guidelines and Animal Models for Osteoporosis. For sham surgery rats, set as control group, the surgery performed surgical incision without removing the ovaries was also conducted at 12-week-old under anesthesia with Zoletil 50 (Tiletamine 20-40 mg/kg+Zolazepam 5-10 mg/kg) and Rompun. After ovariectomy surgery, 24 rats of ovariectomy group were randomly divided into 4 groups, namely, 6 rats in each group. After 2 weeks of surgery, the rats were oral administered once a day with different samples based on their groups. The rats were weighed once a week as the basis for the dose of administration for 12 weeks and the weight data were recorded. Finally, when sacrificed, the ovarian of the rats were checked to determine whether the ovariectomy surgery was successful or not, wherein the data of failed ovariectomy rat(s) would be eliminated.
(§2) Total 30 rats were grouped into following 5 groups (i.e., “SHAM”, “OVX”, “G7P”, “G7P2X”, “E2”). • a. SHAM group: sham surgery rats, set as control group, fed with sterile water by oral gavage; • b. OVX group: ovariectomized rats, set as negative control, fed with sterile water by oral gavage; • c. G7P group: ovariectomized rats, administered with 5.33 mg/kg B.W. G7P solution once per day by oral gavage, wherein the dosage was equal to 40 mg/day of the amount of soy isoflavones for adult; • d. G7P2X group: ovariectomized rats, administered with 10.66 mg/kg B.W. G7P once per day by oral gavage, wherein the dosage was equal to 80 mg/day of the amount of soy isoflavones for adult; • e. E2 group: ovariectomized rats, set as positive control, administered with 200 μg/kg B.W. […] once per day by tube feeding.
At week 0, 3, 6, 9 and 12 of the experimental period, in vivo micro-CT scan were conducted on the caput femoris of right leg of the rats by animal CT scanner system Sky Scan 1176 to obtain the 3D tomography image. The obtained 3D tomography images were further analyzed by software so as to obtain bone index data. The data include bone mineral density (BMD) and bone volume-to-total volume ratio (bone volume/total volume, BV/TV, %).

[2] = Weight changes in ovariectomized rat model; type: in vivo, Wistar rats; settings: ovariectomized rats; for effect on weight gain caused by estrogen deficiency: 12 weeks
Procedure: 12-week-old female Wistar rats were used. All of experimental rats were purchased from BioLASCO Taiwan Co., Ltd. The rats were housed in the Experimental Animal Center of Taipei Medical University. The animal room was maintained under temperature of 21-24° C., relative humidity of 30-70%, and 12 hours of automatic light for alternating dark and bright. During the experimental periods, the animals were given adequate drinking water and fed with standard feed. The feeding and surgery were in accordance with the regulations of the Institutional Animal Care and Use Committee (IACUC) of Taipei Medical University.
as §1, §2

[3] = tested on: ovariectomized rats; experiment: Bone mechanics analysis (three-point bending test of femur); type: in vivo, Wistar rats; settings: week 12
Procedure: as §1, §2
The bio-mechanical strength of femur was measured using bio-mechanical testing instrument (RT1-TST, Royalty Tec.Ins. Ltd) after removing the soft tissue of left leg. First, the length of the femur was measured by the electronic vernier and the mid-position of the femur was set so as to be the scale standard which must be aligned when compressing the vertical physical strength of the femur by the bone stress meter. The femur was kept moist with physiological saline and fixed on a test bench for a three-point bending test. The motor revolution speed of the bone stress meter was set at 0.05 mm/sec. After the femur was compressed to fracture, the parameters of the bone mechanics analysis obtained by the test system were as follows:
a. maximal load: the force converted from the maximum weight of the record, the unit is Newton;
b. maximal energy: the area integratal under the record curve, the unit is mJ;
d. Young's modulus or elastic modulus (E).

[4] = tested on: ovariectomized rats; experiment: Histopathological observation (H&E staining, caput femoris); type: in vivo, Wistar rats
Procedure: as §1
Total 30 rats were grouped into following 5 groups (i.e., “SHAM”, “OVX”, “G7P”, “G7P2X”, “E2”). • a. SHAM group: sham surgery rats, set as control group, fed with sterile water by oral gavage; • b. OVX group: ovariectomized rats, set as negative control, fed with sterile water by oral gavage; • c. […]

[5] = tested on: ovarietomized rats; settings: 3.2 mg/kg B.W. daily oral supplement, 5 months; cited from earlier work
[6] = estradiol 200 μg/kg B.W. once per day oral (E2 group)
[7] = estradiol 200 μg/kg B.W. once per day by tube feeding (E2 group)
[8] = G7P 5.33 mg/kg B.W. once per day oral (G7P group)
[9] = G7P 10.66 mg/kg B.W. once per day oral (G7P2X group)
[10] = G7P 5.33 mg/kg B.W. once per day oral gavage (G7P group)
[11] = G7P 10.66 mg/kg B.W. once per day oral gavage (G7P2X group)

C[C@]12CC[C@@H]3c4ccc(O)cc4CC[C@H]3[C@@H]1CC[C@@H]2O [E2, 1743 estradiol, reference compound]
BV/TV compared with OVX group [1, 6]: higher than that of the OVX group with statistical significance | trabecular structure in μCT 3D imaging [1, 6]: a wide but loose trabecular distribution | BMD level compared with OVX group [1, 6]: significantly higher than that of the OVX group | effect on weight gain caused by estrogen deficiency [2, 6]: could reduce the weight gain | Max Energy [3, 7]: 76.1 ± 20.3 mJ | Stiffness [3, 7]: 307.6 ± 55.1 N/mm | applied load [3, 7]: 176.8 ± 12.1 N

O=c1c(-c2ccc(O)cc2)coc2cc(OP(=O)(O)O)cc(O)c12 [G7P, genistein 7-O-phophate]
BV/TV compared with OVX group [1, 8]: higher than that of the OVX group with statistical significance | trabecular structure in μCT 3D imaging [1, 8]: much integrated than that of the OVX group | BMD level compared with OVX group [1, 8]: significantly higher than that of the OVX group | BV/TV compared with OVX group [1, 9]: higher than that of the OVX group with statistical significance | trabecular structure in μCT 3D imaging [1, 9]: much integrated than that of the OVX group | BMD level compared with OVX group [1, 9]: significantly higher than that of the OVX group | effect on weight gain caused by estrogen deficiency [2, 8]: did not reverse the weight gain | body weight ([2]; G7P 5.33 mg/kg B.W. once per day oral (G7P group), week 12 after surgery): ~400 g | effect on weight gain caused by estrogen deficiency [2, 9]: did not reverse the weight gain | Elastic modulus [3, 10]: 21.8 ± 2.6 MPa | Max Energy [3, 10]: 74.4 ± 6.8 mJ | Stiffness [3, 10]: 326.2 ± 43.2 N/mm | applied load [3, 10]: 186.5 ± 5.9 N | Elastic modulus [3, 11]: 22.8 ± 6.1 MPa | Max Energy [3, 11]: 82.7 ± 22.8 mJ | Stiffness [3, 11]: 319.1 ± 6.1 N/mm | applied load [3, 11]: 197.5 ± 20.6 N | bone mineral retention and trabecular bone density in H&E slide [4, 8]: good | bone mineral retention and trabecular bone density in H&E slide [4, 9]: good

O=c1c(-c2ccc(O)cc2)coc2cc(O)cc(O)c12 [genistein]
effect on bone mass, density or architecture [5]: had no effect on bone mass, density or architecture
